Two molecules from patent US11739064B2, “HDAC inhibitors and therapeutic methods using the same” (THE BOARD OF TRUSTEES OF THE UNIVERSITY OF ILLINOIS, priority 2015, dated 2023) can be followed below.

Each structure is given as a SMILES string.

The subject of one assay is L3.6pl. Kind of assay: In vitro growth inhibition (GI), MTS cell proliferation assay (Table 5), L3.6pl. The following applies: Homo sapiens, 72 hours post-treatment. In kind it is cell-based. In general terms: Tetrazolium assays rely on reduction of a dye to a coloured formazan, in cell work by metabolically active cells.
In a further assay the test system is BxPC-3. The assay can be described thus: In vitro growth inhibition of pancreatic cancer cell lines (Table 3), BxPC-3. The class given is cell-based. The following applies: Homo sapiens, 72 hours post-treatment, cell viability. The procedure:
(§1) In Vitro growth inhibition of pancreatic cancer cell lines. Four of the present HDACIs were analyzed in the [3-(4,5-dimethylthiazol-2-yl)]-2,5-diphenyltetrazolium bromide (MTT) assay in four pancreatic cancer cell lines (Table 3).

A further assay has as its system Mia PaCa-2. The assay can be described thus: In vitro growth inhibition of pancreatic cancer cell lines (Table 3), Mia PaCa-2. The class given is cell-based. As to conditions: Homo sapiens, 72 hours post-treatment, cell viability. As to the method:
as §1

The next assay has as its target T1, Human HDAC6 (Homo sapiens, UniProt Q9UBN7).
T1 construct: Full length with N-terminal GST tag, MW=159 kDa; GST (N); host or cells: baculovirus expression system, Sf9 cells
T1 sequence (Q9UBN7 1-1215): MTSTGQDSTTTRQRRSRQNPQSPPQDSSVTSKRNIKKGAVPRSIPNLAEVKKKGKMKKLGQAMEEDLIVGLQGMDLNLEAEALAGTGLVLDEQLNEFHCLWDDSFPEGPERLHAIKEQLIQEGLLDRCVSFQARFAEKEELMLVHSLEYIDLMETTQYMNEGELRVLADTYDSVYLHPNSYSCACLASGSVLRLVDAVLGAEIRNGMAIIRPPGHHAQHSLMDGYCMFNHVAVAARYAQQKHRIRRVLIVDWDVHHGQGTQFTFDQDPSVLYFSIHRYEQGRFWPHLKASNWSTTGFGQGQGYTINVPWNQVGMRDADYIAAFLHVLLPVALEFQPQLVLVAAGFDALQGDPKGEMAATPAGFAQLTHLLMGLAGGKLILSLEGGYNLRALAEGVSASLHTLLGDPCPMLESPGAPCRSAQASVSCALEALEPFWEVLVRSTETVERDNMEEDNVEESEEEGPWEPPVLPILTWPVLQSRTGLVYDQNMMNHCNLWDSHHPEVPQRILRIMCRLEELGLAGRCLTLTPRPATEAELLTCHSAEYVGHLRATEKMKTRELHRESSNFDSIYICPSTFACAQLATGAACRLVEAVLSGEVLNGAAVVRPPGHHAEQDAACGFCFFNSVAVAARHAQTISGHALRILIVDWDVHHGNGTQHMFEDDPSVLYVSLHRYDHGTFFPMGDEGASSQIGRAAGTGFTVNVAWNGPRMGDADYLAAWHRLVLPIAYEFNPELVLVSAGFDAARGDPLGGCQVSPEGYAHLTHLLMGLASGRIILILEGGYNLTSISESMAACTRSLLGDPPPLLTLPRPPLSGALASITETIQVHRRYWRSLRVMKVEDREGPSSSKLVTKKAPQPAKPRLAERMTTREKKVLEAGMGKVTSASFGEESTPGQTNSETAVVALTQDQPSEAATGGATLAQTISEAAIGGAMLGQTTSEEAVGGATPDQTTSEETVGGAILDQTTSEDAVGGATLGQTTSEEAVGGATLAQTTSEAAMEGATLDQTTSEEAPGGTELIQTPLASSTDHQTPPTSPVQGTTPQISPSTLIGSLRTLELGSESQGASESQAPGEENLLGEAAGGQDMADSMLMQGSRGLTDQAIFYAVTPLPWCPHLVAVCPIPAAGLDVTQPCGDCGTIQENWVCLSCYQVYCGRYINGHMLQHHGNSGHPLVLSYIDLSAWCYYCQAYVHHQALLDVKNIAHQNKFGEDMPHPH
The assay can be described thus: In vitro HDAC inhibition assay, HDAC6. In kind it is biochemical. As to conditions: read-out: HDAC isoform IC50, HDAC6.

The target in the next assay is HDAC2 (Homo sapiens, UniProt Q92769). The assay can be described thus: In vitro HDAC inhibition assay, HDAC2. The following applies: NI = No inhibition at a concentration of 50 pM (footnote b); read-out: HDAC isoform IC50, HDAC2. In kind it is biochemical.
Sequence of HDAC2 (Q92769 whole entry, canonical isoform): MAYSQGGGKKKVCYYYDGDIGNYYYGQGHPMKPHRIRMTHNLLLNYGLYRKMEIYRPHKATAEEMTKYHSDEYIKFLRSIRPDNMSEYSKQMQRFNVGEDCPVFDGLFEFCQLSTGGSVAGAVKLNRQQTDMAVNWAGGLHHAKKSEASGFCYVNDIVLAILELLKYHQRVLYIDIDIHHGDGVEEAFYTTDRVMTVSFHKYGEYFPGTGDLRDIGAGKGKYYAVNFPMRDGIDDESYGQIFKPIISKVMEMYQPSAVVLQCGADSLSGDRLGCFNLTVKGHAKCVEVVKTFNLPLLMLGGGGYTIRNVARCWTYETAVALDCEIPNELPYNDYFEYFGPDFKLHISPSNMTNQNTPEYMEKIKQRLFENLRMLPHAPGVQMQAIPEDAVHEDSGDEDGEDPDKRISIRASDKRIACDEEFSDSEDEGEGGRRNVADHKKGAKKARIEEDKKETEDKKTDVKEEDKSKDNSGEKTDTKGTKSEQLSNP
A further assay addresses Human HDAC1 (Homo sapiens, UniProt Q13547). The assay can be described thus: In vitro HDAC inhibition assay, HDAC1. As to conditions: read-out: HDAC isoform IC50, HDAC1; NI = No inhibition at a concentration of 50 pM (footnote b).
Another assay deals with BxPC3. The assay can be described thus: In vitro growth inhibition (GI), MTS cell proliferation assay (Table 5), BxPC3. The class given is cell-based. The following applies: Homo sapiens, BXPC-3, 72 hours post-treatment.
The next assay has as its system PANC1. Kind of assay: In vitro growth inhibition of pancreatic cancer cell lines (Table 3), PANC1. In kind it is cell-based. As to conditions: Homo sapiens, PANC-1; 72 hours post-treatment, cell viability. As to the method:
as §1

A further assay concerns the target HDAC3/NcoR2 complex (Homo sapiens, UniProt O15379). The assay can be described thus: In vitro HDAC inhibition assay, HDAC3. As to conditions: NI = No inhibition at a concentration of 50 pM (footnote b); read-out: HDAC isoform IC50, HDAC3. In kind it is biochemical.
A further assay deals with T2, HDAC10 (Homo sapiens, UniProt Q969S8).
T2 sequence (Q969S8 1-669): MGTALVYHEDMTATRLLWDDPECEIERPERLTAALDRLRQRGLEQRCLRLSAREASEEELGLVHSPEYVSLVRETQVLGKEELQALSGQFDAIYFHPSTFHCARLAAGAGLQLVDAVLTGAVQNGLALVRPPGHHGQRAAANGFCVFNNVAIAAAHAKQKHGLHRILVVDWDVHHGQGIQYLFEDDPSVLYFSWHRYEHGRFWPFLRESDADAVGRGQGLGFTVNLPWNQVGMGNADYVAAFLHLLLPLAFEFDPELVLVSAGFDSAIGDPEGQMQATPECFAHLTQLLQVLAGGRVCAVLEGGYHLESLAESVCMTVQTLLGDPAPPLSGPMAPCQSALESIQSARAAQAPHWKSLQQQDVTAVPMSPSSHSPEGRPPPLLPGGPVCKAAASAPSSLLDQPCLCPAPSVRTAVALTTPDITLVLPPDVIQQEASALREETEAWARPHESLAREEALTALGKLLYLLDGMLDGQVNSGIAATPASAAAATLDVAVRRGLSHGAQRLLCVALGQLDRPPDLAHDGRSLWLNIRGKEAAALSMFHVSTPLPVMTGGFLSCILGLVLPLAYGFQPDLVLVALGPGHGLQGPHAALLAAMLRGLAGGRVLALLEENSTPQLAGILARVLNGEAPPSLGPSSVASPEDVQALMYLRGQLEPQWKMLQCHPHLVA
Kind of assay: In vitro HDAC inhibition assay, HDAC10. The class given is biochemical. The following applies: NI = No inhibition at a concentration of 50 pM (footnote b); read-out: HDAC isoform IC50, HDAC10.

Assay [1] concerns L3.6pl pancreatic cancer cells. Kind of assay: Apoptosis by Hoechst staining and PARP cleavage. The class given is cell-based. The following applies: 10 μM, 24 hours after the initiation of treatment. The procedure:
FIG. 3 contains photographs and Western immunoblots showing that HDAC inhibitors of present invention induce apoptosis on L3.6p1 pancreatic cancer cells. L3.6p1 pancreatic cancer cells were treated with 10 μM of compound 1, 2 or 4 for 24 hrs as indicated. Cells were collected and processed to Hoechst staining (upper panel) and cell lysates were prepared for Western immunoblotting (lower panel). 50 μg of proteins were separated by SDS-PAGE, transferred to PVDF membrane, and immunoblotted as indicated.

For another assay, the system named is Panc 04.03. Kind of assay: In vitro growth inhibition of pancreatic cancer cell lines (Table 3), Panc 04.03. The following applies: Homo sapiens, 72 hours post-treatment, cell viability. The class given is cell-based. As to the method:
as §1

Sequence of HDAC3/NcoR2 complex (O15379 whole entry, canonical isoform): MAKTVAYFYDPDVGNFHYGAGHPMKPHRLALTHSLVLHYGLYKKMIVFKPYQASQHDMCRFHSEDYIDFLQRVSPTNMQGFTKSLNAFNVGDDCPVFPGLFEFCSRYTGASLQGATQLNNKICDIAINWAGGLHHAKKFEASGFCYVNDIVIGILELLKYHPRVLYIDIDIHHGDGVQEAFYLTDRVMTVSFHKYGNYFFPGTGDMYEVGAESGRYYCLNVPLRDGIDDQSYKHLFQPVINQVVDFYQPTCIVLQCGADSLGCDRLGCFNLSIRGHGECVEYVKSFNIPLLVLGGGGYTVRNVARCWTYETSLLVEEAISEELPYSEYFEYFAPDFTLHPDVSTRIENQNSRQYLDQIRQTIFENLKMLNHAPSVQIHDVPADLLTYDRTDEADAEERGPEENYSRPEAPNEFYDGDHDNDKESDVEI
Sequence of HDAC3/NcoR2 complex (Q9Y618 395-489 partner limits assumed): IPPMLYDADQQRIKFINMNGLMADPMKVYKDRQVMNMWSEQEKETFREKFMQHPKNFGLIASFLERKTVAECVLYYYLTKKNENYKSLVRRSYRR
Sequence of Human HDAC1 (Q13547 whole entry, canonical isoform): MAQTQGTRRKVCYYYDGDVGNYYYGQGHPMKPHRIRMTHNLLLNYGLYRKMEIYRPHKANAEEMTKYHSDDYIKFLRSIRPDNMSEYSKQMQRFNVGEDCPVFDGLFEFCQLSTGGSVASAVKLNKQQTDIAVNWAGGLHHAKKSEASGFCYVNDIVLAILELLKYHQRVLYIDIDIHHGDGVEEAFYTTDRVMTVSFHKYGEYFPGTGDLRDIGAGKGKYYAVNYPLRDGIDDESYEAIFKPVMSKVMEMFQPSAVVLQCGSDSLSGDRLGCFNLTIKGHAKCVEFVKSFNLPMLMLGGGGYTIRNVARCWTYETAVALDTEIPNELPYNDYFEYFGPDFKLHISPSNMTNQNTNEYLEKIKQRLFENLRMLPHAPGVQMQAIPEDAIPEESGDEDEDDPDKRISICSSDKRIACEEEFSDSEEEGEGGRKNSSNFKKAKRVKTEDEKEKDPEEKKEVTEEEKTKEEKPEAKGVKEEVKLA

By GI50 is commonly meant the concentration giving 50% growth inhibition. Lower therefore signals more potent growth inhibition. By IC50 is commonly meant the midpoint of a concentration-inhibition curve. Take `O=C(CCCc1cc(C(=O)NO)no1)Nc1nc(-c2ccccc2)cs1` [Compound 2, 5-[3-(4-Phenyl-thiazol-2-ylcarbamoyl)-propyl]-isoxazole-3-carboxylic acid hydroxyamide]: the GI50 in the assay with L3.6pl was determined as 700 nM; with BxPC3 it was 2300 nM. For the same molecule, the IC50 with BxPC-3 was determined as 20800 nM; with Mia PaCa-2, 1300 nM; at Human HDAC6, 81.8 nM; at HDAC2, 1220 nM; at Human HDAC1, 351 nM; with PANC1, 2500 nM. The IC50 on HDAC3/NcoR2 complex turned out to be 934 nM; at HDAC10, 854 nM; in the assay with Panc 04.03, 48400 nM. The “Induction of apoptosis (Hoechst staining and PARP cleavage)” value in [1] was “effectively induced apoptosis”.

Take `CCOC(=O)Nc1ccc(-c2csc(NC(=O)CCCc3cc(C(=O)NO)no3)n2)cc1` [Compound 4, (4-{2-[4-(3-Hydroxycarbamoyl-isoxazol-5-yl)-butyrylamino]-thiazol-4-yl}-phenyl)-carbamic acid ethyl ester]: the GI50 in the assay on L3.6pl and in the assay on BxPC3 was 1700 nM each time. In addition, the IC50 with BxPC-3 turned out to be 15200 nM; in the assay with Mia PaCa-2, 1900 nM; on Human HDAC6 it was 48.9 nM; at HDAC2, 834 nM; on Human HDAC1, 200 nM; in the assay on PANC1, 11000 nM. Besides, the IC50 was determined as 354 nM at HDAC3/NcoR2 complex, 323 nM at HDAC10 and 13500 nM with Panc 04.03. For the same molecule, the “Induction of apoptosis (Hoechst staining and PARP cleavage)” value in assay [1] is “effectively induced apoptosis”.
